# Reference: paper PMC10945739, “Exploring Cassia mimosoïdes as a promising natural source of steroids with potent anti-cancer, urease inhibition, and antimicrobial properties” (RSC Advances, 2024)
# Like-named read-outs stand apart in the source and are kept apart here.
# Columns and labels:
# B. subtilis = experiment: Antibacterial activity, agar well diffusion method; format: cell-based; details: Table S2; unit not given
# Source text: (§1) Antibacterial activity of the isolated and synthesized compounds was perform using agar well method. Three bacterial strains selected for this experiment were H.pylori, B. subtilis and S. aureus, for all of three strains compounds show good to mederate inhibition. […] The presence of H. pylori in the stomach has been associated with a range of gastric disorders, including peptic ulcers, gastritis, and an increased risk of gastric cancer. The bacterium's ability to manipulate the gastric environment through urease activity underscores its role in the development and progression of these conditions. Different studies have targeted H. pylori and its urease activity as potential avenues for therapeutic intervention and disease management (Fig. 4).
# (§2) The agar well diffusion method evaluated every compound separately. Each sterile Petri plate was aseptically filled with 20 mL of the agar medium, which was then […]. The media then solidified at room temperature. Various bacterial strains were put to agar plates using a sterile cotton swab. A 6 mm-diameter well was drilled using a sterilized cork borer. Each isolated compound was dissolved in 1 mL of a 20% DMSO solution. In a well with a diameter of 6 mm, […] of the standard drug and isolated compounds were added. […] The zone of inhibition was graphed and quantified in millimeters.[20]
# S. aureus = experiment: Antibacterial activity, agar well diffusion method; format: cell-based, Staphylococcus aureus; details: Table S2 and b89; unit not given
# Jack bean urease = Jack bean urease (Canavalia ensiformis, UniProt P07374); experiment: biochemical; format: biochemical
# Method: The inhibition potential of the isolated compounds against urease was investigated using a SpectraMax M2 reader using 96-well microplates.
# The kinetic assay involved preparing varying concentrations of both the test compound and the substrate (urea), spanning 0 μM, 5 μM, 10 μM, 15 μM, and 20 μM. The resulting data was utilized to construct a Lineweaver–Burk plot.
# In 96-well plates were incubated at 37 °C for 15 min, reaction mixtures consisting of 25 μL of test compounds (each 0.5 mM), 25 μL of enzyme solution (Jack bean urease) and 55 μL of buffers containing 20.79 mM urea. The indophenol method described by Weatherburn[21] was used to determine urease inhibitor activity by measuring ammonia production. Briefly, to each well were added 70 μL of alkaline reagent (0.5% w/v NaOH and 0.1% active chloride, NaOCl) and 45 μL of phenolic reagent (1% w/v phenol and 0.005% w/v sodium nitroprusside). The microplate reader (Molecular Devices, USA) was used to measure the increase in absorbance at 650 nm after 50 min. A final volume of 245 μL was required to perform all reactions in a triplicate. The results (absorbance change per minute) were processed using SoftMax Pro software (Molecular Devices, USA). All assays were performed at pH 6.8. Inhibition percentages were calculated from the formula% Inhibition = 100 − (Abs(sample)/Abs(control)) × 100where “A” is the absorbance of the “test well” as well as the “control”. Thiourea was used as a standard.
# H.pylori = experiment: Antibacterial activity, agar well diffusion method; format: cell-based, Helicobacter pylori; details: Table S2 and b89; unit not given
# Source text: as §1, §2
# [1] = tested on: human HepG2 hepatic cancer cells; experiment: MTT cell viability assay; format: cell-based; details: HepG2, MTT, 48 hours, at 200 μg
# Method: The human liver cells were cultivated in Dulbecco's modified Eagle medium (DMEM) in which 100 U mL^−1 penicillin, 10% fetal bovine and […] streptomycin were added and kept at 37 °C in a […] carbon dioxide induced humidified environment. The human liver cells prepared as per above procedure were then treated with synthesized compounds diluted to 0.05% DMSO concentration.
# Using MTT assay, the % viability of cancer cells 36 was evaluated. According to the standard procedure, HepG2 cells were treated with various dosages of synthesized compounds for 48 hours each. The cells were then incubated for 4 hours at 37 °C with 10μ MTT reagent (5 mg mL^−1). Next, in 150 μL DMSO was added to dissolve formazan crystals. The λmax was recorded at 409 nm in a microplate reader (thermos scientific).
# Chain of Jack bean urease (P07374 whole entry, looked up): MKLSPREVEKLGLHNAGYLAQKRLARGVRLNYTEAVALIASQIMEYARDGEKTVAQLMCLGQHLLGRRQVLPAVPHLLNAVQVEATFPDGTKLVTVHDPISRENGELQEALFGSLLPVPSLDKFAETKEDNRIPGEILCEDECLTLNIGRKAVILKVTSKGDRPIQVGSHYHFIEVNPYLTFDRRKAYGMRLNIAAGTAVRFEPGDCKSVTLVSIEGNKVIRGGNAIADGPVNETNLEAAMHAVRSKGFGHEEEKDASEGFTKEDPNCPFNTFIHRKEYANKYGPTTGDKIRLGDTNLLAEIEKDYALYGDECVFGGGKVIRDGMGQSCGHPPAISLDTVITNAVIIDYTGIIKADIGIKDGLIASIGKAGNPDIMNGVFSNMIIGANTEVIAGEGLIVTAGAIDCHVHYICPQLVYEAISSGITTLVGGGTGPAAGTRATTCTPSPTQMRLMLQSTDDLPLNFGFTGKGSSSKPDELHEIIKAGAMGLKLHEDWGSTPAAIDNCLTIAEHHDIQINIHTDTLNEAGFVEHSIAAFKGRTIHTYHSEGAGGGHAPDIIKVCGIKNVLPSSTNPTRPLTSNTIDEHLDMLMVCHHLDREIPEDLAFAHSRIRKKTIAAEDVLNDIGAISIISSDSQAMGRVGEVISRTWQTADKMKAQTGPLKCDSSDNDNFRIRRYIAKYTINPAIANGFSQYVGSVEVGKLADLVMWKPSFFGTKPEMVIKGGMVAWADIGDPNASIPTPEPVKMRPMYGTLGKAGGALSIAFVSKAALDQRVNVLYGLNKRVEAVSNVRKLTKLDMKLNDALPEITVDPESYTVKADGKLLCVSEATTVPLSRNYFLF
smiles,measurement,setting,value
"O=c1cc(-c2ccc(O)c(O)c2)oc2cc(O)c([C@@H]3O[C@H](CO)[C@@H](O)[C@H](O)[C@H]3O)c(O)c12 [Compound 7, Luteolin-6-C-β-D-glucopyranoside]",Antibacterial activity against B. subtilis,B. subtilis,0.12
same,Antibacterial activity (MIC) against S. aureus,S. aureus,0.78
same,IC50,"Jack bean urease; pH 6.8, read-out: IC50 ± SEM, urease",1220 ± 430 nM
same,% Inhibition of urease,"Jack bean urease; test compounds each 0.5 mM, pH 6.8",81.57%
same,IC50,"Jack bean urease; unit inferred, read-out: IC50, urease (printed in Fig. 6)",1220 ± 430 nM
same,Antibacterial activity (MIC) against H.Pylori,H.pylori,1.23
same,% Viability,[1],97.94 ± 3.53%
